According to patent US11267825B2 (AICURIS GMBH & CO. KG, priority 2017, dated 2022):
Where two headings read alike, the source gives them in different places.

Columns and labels:
HBV core protein = HBV core protein (UniProt P03146); assay type: biochemical; conditions: read-out: Assembly Activity (IC50); BODIPY-FL labelled core protein, assembly started with NaCl, read after 6 min
How it was run: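 Compounds tested at 8 concentrations in 0.5-log steps from 100, 31.6 or 10 μM against 1.0–2.0 μM BODIPY-FL-labelled Cys150 core dimers (residues 1–149), 50 mM HEPES pH 7.5. NaCl ([…] final) triggered assembly; quenching read at 6 min, 477/525 nm, with 2.5 M and 0 M NaCl as controls; EC50 by nonlinear fit.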

HBV = test: Determination of HBV DNA from the supernatants of HepAD38 cells (anti-HBV activity); assay type: cell-based, hepatitis B virus; conditions: Hepatitis B virus, read-out: Cell Activity (EC50)
How it was run: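 EC50 values were obtained by non-linear regression of HBV DNA copy numbers measured by qPCR against pCH-9/3091 plasmid standards. The DNA came from filtered supernatants collected on day 6. Before that, tetracycline-withdrawn HepAD38 cells had been exposed to serial half-log compound dilutions, with tetracycline-treated cells as the non-producing control.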

[1] = 144 h, HBV DNA in HepAD38 supernatant at day 6

HBV core protein, sequence (P03146 whole entry, looked up, the tested form may be a part): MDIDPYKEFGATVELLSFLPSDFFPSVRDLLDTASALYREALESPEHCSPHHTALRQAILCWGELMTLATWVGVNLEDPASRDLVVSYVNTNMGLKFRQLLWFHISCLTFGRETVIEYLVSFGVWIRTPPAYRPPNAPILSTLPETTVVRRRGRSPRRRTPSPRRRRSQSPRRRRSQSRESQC

| SMILES | IC50 (HBV core protein) [µM] | EC50 (HBV; [1]) [nM] | EC50 (HBV; HePAD38, 144 h) [nM] |
| --- | --- | --- | --- |
| COCC(C)Nc1nc2c(s1)CN(C(=O)c1cc3ccccc3[nH]1)CC2 (stereo not drawn) [Example 70, 5-(1H-indole-2-carbonyl)-N-(1-methoxypropan-2-yl)-4H,5H,6H,7H-[1,3]thiazolo[5,4-c]pyridin-2-amine] | < 5 | < 1000 |  |
| CC(C)(C)Nc1nc2c(s1)CN(C(=O)c1cc3ccccc3[nH]1)CC2 [Example 71, N-tert-butyl-5-(1H-indole-2-carbonyl)-4H,5H,6H,7H-[1,3]thiazolo[5,4-c]pyridin-2-amine] | < 5 | < 1000 |  |
| O=C(c1cc2ccccc2[nH]1)N1CCc2nc(NCC3CCCO3)sc2C1 (stereo not drawn) [Example 72, 5-(1H-indole-2-carbonyl)-N-[(oxolan-2-yl)methyl]-4H,5H,6H,7H-[1,3]thiazolo[5,4-c]pyridin-2-amine] | < 5 | < 1000 |  |
| O=C(c1cc2ccccc2[nH]1)N1CCc2nc(NCCCN3CCOCC3)sc2C1 [Example 73, 5-(1H-indole-2-carbonyl)-N-[3-(morpholin-4-yl)propyl]-4H,5H,6H,7H-[1,3]thiazolo[5,4-c]pyridin-2-amine] | < 5 | < 1000 |  |
| O=C(c1cc2ccccc2[nH]1)N1CCc2nc(CNCc3ccccc3)sc2C1 [Example 74, Benzyl({[5-(1H-indole-2-carbonyl)-4H,5H,6H,7H-[1,3]thiazolo[5,4-c]pyridin-2-yl]methyl})amine] | < 100 | 1000 to 10000 |  |
| O=C(c1cc2c(F)cc(F)cc2[nH]1)N1CCc2nc(NCC3(CO)CC3)sc2C1 [Example 75, [1-({[5-(4,6-difluoro-1H-indole-2-carbonyl)-4H,5H,6H,7H-[1,3]thiazolo[5,4-c]pyridin-2-yl]amino}methyl)cyclopropyl]methanol] | < 5 | < 1000 |  |
| Cc1cccc2[nH]c(C(=O)N3CCc4nc(NC5CCOC5)sc4C3)cc12 (stereo not drawn) [Example 76, 5-(4-methyl-1H-indole-2-carbonyl)-N-(oxolan-3-yl)-4H,5H,6H,7H-[1,3]thiazolo[5,4-c]pyridin-2-amine] | < 5 | < 1000 |  |
| N#Cc1cc(F)cc2[nH]c(C(=O)N3CCc4nc(N)sc4C3)cc12 [Example 77, 2-{2-amino-4H,5H,6H,7H-[1,3]thiazolo[5,4-c]pyridine-5-carbonyl}-6-fluoro-1H-indole-4-carbonitrile] | < 5 | < 1000 |  |
| Nc1nc2c(s1)CN(C(=O)c1cc3c(F)c(F)c(F)cc3[nH]1)CC2 [Example 78, 5-(4,5,6-trifluoro-1H-indole-2-carbonyl)-4H,5H,6H,7H-[1,3]thiazolo[5,4-c]pyridin-2-amine] | < 5 | < 1000 |  |
| N#Cc1ccc(F)c2[nH]c(C(=O)N3CCc4nc(N)sc4C3)cc12 [Example 79, 2-{2-amino-4H,5H,6H,7H-[1,3]thiazolo[5,4-c]pyridine-5-carbonyl}-7-fluoro-1H-indole-4-carbonitrile] | < 100 | 1000 to 10000 |  |
| Nc1nc2c(s1)CN(C(=O)c1cc3c(Cl)c(F)ccc3[nH]1)CC2 [Example 80, 5-(4-chloro-5-fluoro-1H-indole-2-carbonyl)-4H,5H,6H,7H-[1,3]thiazolo[5,4-c]pyridin-2-amine] | < 5 | < 1000 |  |
| CCc1cccc2[nH]c(C(=O)N3CCc4nc(N)sc4C3)cc12 [Example 81, 5-(4-ethyl-1H-indole-2-carbonyl)-4H,5H,6H,7H-[1,3]thiazolo[5,4-c]pyridin-2-amine] | < 5 | < 1000 |  |
| Nc1nc2c(s1)CN(C(=O)c1cc3c(C4CC4)cccc3[nH]1)CC2 [Example 82, 5-(4-cyclopropyl-1H-indole-2-carbonyl)-4H,5H,6H,7H-[1,3]thiazolo[5,4-c]pyridin-2-amine] | 5 to 10 | 1000 to 10000 |  |
| N#Cc1cccc2[nH]c(C(=O)N3CCc4nc(N)sc4C3)cc12 [Example 83, 5-(4-cyano-1H-indole-2-carbonyl)-4H,5H,6H,7H-[1,3]thiazolo[5,4-c]pyridin-2-amine] | < 5 | 1000 to 10000 |  |
| Nc1nc2c(s1)CN(C(=O)c1cc3c(F)cc(F)c(F)c3[nH]1)CC2 [Example 84, 5-(4,6,7-trifluoro-1H-indole-2-carbonyl)-4H,5H,6H,7H-[1,3]thiazolo[5,4-c]pyridin-2-amine] | < 5 | < 1000 |  |
| Nc1nc2c(s1)CN(C(=O)c1cc3c(Cl)ccc(F)c3[nH]1)CC2 [Example 85, 5-(4-chloro-7-fluoro-1H-indole-2-carbonyl)-4H,5H,6H,7H-[1,3]thiazolo[5,4-c]pyridin-2-amine] | < 5 | < 1000 |  |
| Cc1ccc(F)c2[nH]c(C(=O)N3CCc4nc(N)sc4C3)cc12 [Example 86, 5-(7-fluoro-4-methyl-1H-indole-2-carbonyl)-4H,5H,6H,7H-[1,3]thiazolo[5,4-c]pyridin-2-amine] | < 5 | < 1000 |  |

| SMILES | IC50 (HBV core protein) [µM] | EC50 (HBV; [1]) [nM] | EC50 (HBV; HePAD38, 144 h) [nM] |
| --- | --- | --- | --- |
| O=C(c1cc2ccccc2[nH]1)N1CCc2nc(NCC3(CO)CC3)sc2C1 [Example 87, [1-({[5-(1H-indole-2-carbonyl)-4H,5H,6H,7H-[1,3]thiazolo[5,4-c]pyridin-2-yl]amino}methyl)cyclopropyl]methanol] | < 5 | < 1000 |  |
| Cc1cccc2[nH]c(C(=O)N3CCc4nc(N(C)C)sc4C3)cc12 [Example 88, N,N-dimethyl-5-(4-methyl-1H-indole-2-carbonyl)-4H,5H,6H,7H-[1,3]thiazolo[5,4-c]pyridin-2-amine] | < 100 | 1000 to 10000 |  |
| CS(=O)(=O)CCNc1nc2c(s1)CN(C(=O)c1cc3ccccc3[nH]1)CC2 [Example 89, 5-(1H-indole-2-carbonyl)-N-(2-methanesulfonylethyl)-4H,5H,6H,7H-[1,3]thiazolo[5,4-c]pyridin-2-amine] | < 5 | < 1000 |  |
| Nc1nc2c(s1)CN(C(=O)c1cc3c(Br)ccc(F)c3[nH]1)CC2 [Example 90, 5-(4-bromo-7-fluoro-1H-indole-2-carbonyl)-4H,5H,6H,7H-[1,3]thiazolo[5,4-c]pyridin-2-amine] | < 5 | < 1000 |  |
| O=C(c1cc2ccccc2[nH]1)N1CCc2nc(NCC3CCOC3)sc2C1 (stereo not drawn) [Example 91, 5-(1H-indole-2-carbonyl)-N-[(oxolan-3-yl)methyl]-4H,5H,6H,7H-[1,3]thiazolo[5,4-c]pyridin-2-amine] | < 5 |  | < 1000 |
| Nc1nc2c(s1)CN(C(=O)c1cc3ccc(Br)cc3[nH]1)CC2 [Example 92, 5-(6-bromo-1H-indole-2-carbonyl)-4H,5H,6H,7H-[1,3]thiazolo[5,4-c]pyridin-2-amine] | < 5 | < 1000 |  |
| Nc1nc2c(s1)CN(C(=O)c1cc3c(Br)ccc(O)c3[nH]1)CC2 [Example 93, 2-{2-amino-4H,5H,6H,7H-[1,3]thiazolo[5,4-c]pyridine-5-carbonyl}-4-bromo-1H-indol-7-ol] | < 100 | < 100000 |  |
| CC(C)(O)CNc1nc2c(s1)CN(C(=O)c1cc3ccccc3[nH]1)CC2 [Example 95, 1-{[5-(1H-indole-2-carbonyl)-4H,5H,6H,7H-[1,3]thiazolo[5,4-c]pyridin-2-yl]amino}-2-methylpropan-2-ol] | < 5 | < 1000 |  |
| O=C(c1cc2ccccc2[nH]1)N1CCc2nc(NCC3CC3)sc2C1 [Example 96, N-(cyclopropylmethyl)-5-(1H-indole-2-carbonyl)-4H,5H,6H,7H-[1,3]thiazolo[5,4-c]pyridin-2-amine] | < 5 | < 1000 |  |
| COCCNc1nc2c(s1)CN(C(=O)c1cc3ccccc3[nH]1)CC2 [Example 97, 5-(1H-indole-2-carbonyl)-N-(2-methoxyethyl)-4H,5H,6H,7H-[1,3]thiazolo[5,4-c]pyridin-2-amine] | < 5 | < 1000 |  |
| Nc1nc2c(s1)CN(C(=O)c1cc3cccc(O)c3[nH]1)CC2 [Example 98, 2-{2-amino-4H,5H,6H,7H-[1,3]thiazolo[5,4-c]pyridine-5-carbonyl}-1H-indol-7-ol] | < 100 | < 100000 |  |
| C[C@H](O)CNc1nc2c(s1)CN(C(=O)c1cc3ccccc3[nH]1)CC2 [Example 99, (2S)-1-{[5-(1H-indole-2-carbonyl)-4H,5H,6H,7H-[1,3]thiazolo[5,4-c]pyridin-2-yl]amino}propan-2-ol] | < 5 | < 1000 |  |
| CC(C)OC(=O)[C@H](C)NP(=O)(OCCNc1nc2c(s1)CN(C(=O)c1cc3c(F)cc(F)cc3[nH]1)CC2)Oc1ccccc1 (stereo partly drawn) [Example 100, Propan-2-yl (2S)-2-{[(2-{[5-(4,6-difluoro-1H-indole-2-carbonyl)-4H,5H,6H,7H-[1,3]thiazolo[5,4-c]pyridin-2-yl]amino}ethoxy)(phenoxy)phosphoryl]amino}propanoate] | < 100 |  | 1000 to 10000 |
| O=C(c1cc2c(Cl)cc(F)cc2[nH]1)N1CCc2nc(NCC3CCOC3)sc2C1 (stereo not drawn) [Example 101, 5-(4-chloro-6-fluoro-1H-indole-2-carbonyl)-N-[(oxolan-3-yl)methyl]-4H,5H,6H,7H-[1,3]thiazolo[5,4-c]pyridin-2-amine] | < 5 | < 1000 |  |
| O=C(c1cc2c(F)cc(F)cc2[nH]1)N1CCc2nc(OCCO)sc2C1 [Example 102, 2-{[5-(4,6-difluoro-1H-indole-2-carbonyl)-4H,5H,6H,7H-[1,3]thiazolo[5,4-c]pyridin-2-yl]oxy}ethan-1-ol] | 5 to 10 | 1000 to 10000 |  |
| N#Cc1cc(F)cc2[nH]c(C(=O)N3CCc4nc(NCC5CCOC5)sc4C3)cc12 (stereo not drawn) [Example 103, 5-(4-cyano-6-fluoro-1H-indole-2-carbonyl)-N-[(oxolan-3-yl)methyl]-4H,5H,6H,7H-[1,3]thiazolo[5,4-c]pyridin-2-amine] | 5 to 10 | < 1000 |  |
